Where a name gives a salt, the structure may show the parent alone. Read-outs that look alike come from different tables or passages of the source.
How the values were obtained:
NTCP [1] = target: T1, NTCP (Homo sapiens, UniProt Q14973); test: Binding of fluorescent myr-preS1-Al633 peptide to NTCP-HEK293 cells; set-up: The full-length open reading frames of NTCP, ASBT, and SOAT were cloned; expressed in transfected cells; host or cells: Flp-In T-REX HEK293 (NTCP-HEK293), tetracycline-induced
T1 sequence (Q14973 1-349): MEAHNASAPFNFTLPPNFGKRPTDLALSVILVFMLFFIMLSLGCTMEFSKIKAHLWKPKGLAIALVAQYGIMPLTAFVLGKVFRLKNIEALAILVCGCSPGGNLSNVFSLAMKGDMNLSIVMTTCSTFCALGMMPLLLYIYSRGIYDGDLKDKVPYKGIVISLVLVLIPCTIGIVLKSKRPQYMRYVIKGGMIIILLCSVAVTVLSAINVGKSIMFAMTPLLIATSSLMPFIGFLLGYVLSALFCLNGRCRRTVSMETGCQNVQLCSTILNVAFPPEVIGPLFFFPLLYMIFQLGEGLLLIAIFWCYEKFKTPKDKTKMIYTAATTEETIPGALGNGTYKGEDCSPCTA
Description: NTCP-HEK293 cells were seeded into 24-well-dishes as described above. For every set of induced wells an equal number of not-induced wells were used as respective background controls. Cells were washed three times with PBS and then preincubated with sodium transport buffer supplemented with MEM-amino acid solution (ThermoFisher) at 1:50 dilution at 37°C for 5 min. The fluorescent myr-preS1-Al633 peptide was added with a final concentration of 10 nM and binding experiments were performed over 10 min at 37°C. […] For calculation of the NTCP-specific binding signal, the mean background signal from the not-induced cells was subtracted. Net binding rates in the absence of any inhibitor were set to 100%.
(B) Binding of the fluorescent myr-preS1-Al633 peptide was analyzed in NTCP-HEK293 cells in the presence of increasing concentrations of TC, DHEAS, or TLC. […] Fluorescence was quantified by a fluorescence reader and values are expressed as percentage of control.

NTCP [2] = target: T1, NTCP; test: Transport kinetics (concentration-dependent uptake) in NTCP-HEK293 cells; format: cell-based; set-up: The full-length open reading frames of NTCP, ASBT, and SOAT were cloned; expressed in transfected cells; host or cells: Flp-In T-REX HEK293 (NTCP-HEK293), tetracycline-induced; conditions: uptake via NTCP, 1 min, 37°C
Description: Uptake experiments were initiated by replacing the preincubation buffer by 500 μL transport buffer containing the radiolabeled test compound and were performed at 37°C. Transport was terminated by removing the transport buffer and washing five-times with ice-cold PBS. Cell monolayers were lysed in 1 N NaOH with 0.1% SDS and the cell-associated radioactivity was determined by liquid scintillation counting.
FIGURE 2 NTCP, ASBT, and SOAT transport kinetics. Concentration-dependent uptake was analyzed in NTCP-HEK293, ASBT-HEK293, and SOAT-HEK293 cells for the indicated substrates at increasing substrate concentrations. Stably transfected HEK293 cells were pretreated with 1 μg/ml tetracycline to induce carrier expression. HEK293-FlpIn cells were used as control. Uptake was analyzed for 1 min at 37°C. Afterward, the medium was removed and each cell monolayer was washed and processed to determine the protein content and cell-associated radioactivity. Specific uptake was calculated by subtracting non-specific uptake of the HEK293-FlpIn control cells (open squares) from uptake into carrier-overexpressing HEK293 cells (filled squares) and is shown by broken lines. The values represent means ± SD of duplicate experiments, each with triplicate determinations (n = 6).

NTCP [3] = target: T1, NTCP; test: Transport inhibition in NTCP-HEK293 cells; conditions: substrate inhibitors, 1 min after 5 min preincubation
ASBT = target: T2, ASBT (Homo sapiens, UniProt Q12908); test: Transport inhibition in ASBT-HEK293 cells; format: cell-based; conditions: substrate inhibitors, 1 min after 5 min preincubation
T2 construct: The full-length open reading frames of NTCP, ASBT, and SOAT were cloned; expressed in transfected cells; host or cells: Flp-In T-REX HEK293 (ASBT-HEK293), tetracycline-induced
T2 sequence (Q12908 1-348): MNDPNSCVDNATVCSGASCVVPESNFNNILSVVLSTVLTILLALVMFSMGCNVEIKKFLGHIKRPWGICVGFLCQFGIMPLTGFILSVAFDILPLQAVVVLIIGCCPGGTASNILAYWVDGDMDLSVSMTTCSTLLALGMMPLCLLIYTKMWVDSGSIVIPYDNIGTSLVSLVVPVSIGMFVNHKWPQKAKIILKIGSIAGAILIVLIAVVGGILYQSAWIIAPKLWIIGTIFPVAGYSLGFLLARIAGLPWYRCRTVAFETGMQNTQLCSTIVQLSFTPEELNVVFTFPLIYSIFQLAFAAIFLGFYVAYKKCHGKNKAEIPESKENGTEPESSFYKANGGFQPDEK
Description: Cells were washed three times with PBS and were preincubated with the respective inhibitor in sodium transport buffer for 5 min at 37°C. Uptake was initiated by adding the respective radiolabeled substrate to the well and incubating for a fixed time as indicated in the figures at 37°C. Transport was terminated by removing the transport buffer and washing five-times with ice-cold PBS. Cell monolayers were lysed in 1 N NaOH with 0.1% SDS and the cell-associated radioactivity and protein content was determined as described above. For uptake inhibition with the myr-preS1 peptide the sodium transport buffer contained additionally MEM-amino acid solution (ThermoFisher) at 1:50 dilution.
All transport or inhibition graphs were generated with GraphPad Prism 6.0 (GraphPad). Determination of IC50 values was done by nonlinear regression analysis using the equation log (inhibitor) vs. response settings. If not stated otherwise in the legends all data represent means ± SD of at least triplicate determinations of representative experiments.
FIGURE 3 Inhibition of NTCP, ASBT, and SOAT with substrate inhibitors. Transport of [^3H]TC, [^3H]TLC, and [^3H]DHEAS was analyzed in NTCP-HEK293, ASBT-HEK293, and SOAT-HEK293 cells in the presence of the substrate inhibitors TC, TLC, and DHEAS at increasing concentrations ranging from 100 nM till 1000 µM. After 5 min of preincubation with the respective inhibitory compound, 200 nM [^3H]TLC, [^3H]TC or [^3H]DHEAS were added for additional 1 min and the cell lysates were analyzed by liquid scintillation counting. Unspecific uptake of HEK293-FlpIn cells was set to 0%. Carrier-specific uptake without inhibitor was set to 100%.
Transport of [^3H]TC, [^3H]TLC, and [^3H]DHEAS was analyzed in NTCP-HEK293, ASBT-HEK293, and SOAT-HEK293 cells in the presence of different supposed non-substrate triterpenoid inhibitors as indicated at increasing concentrations ranging from 100 nM till 1000 µM. After 5 min of preincubation with the respective inhibitory compound, 1 µM [^3H]TLC, [^3H]TC or [^3H]DHEAS were added for additional 10 min at 37°C and the cell lysates were analyzed by liquid scintillation counting. Experiments performed without inhibitor were set to 100%. Means of negative controls were subtracted to calculate net transport rates (expressed as percentage of control). Data represent means ± SD of quadruplicate determinations of representative experiments.

[4] = NTCP IC50, substrate [3H]DHEAS, 200 nM [3H]DHEAS
[5] = NTCP IC50, substrate [3H]TC, 200 nM [3H]TC
[6] = NTCP IC50, substrate [3H]TLC, 200 nM [3H]TLC

Compound: C[C@]12CC[C@H](OS(=O)(=O)O)CC1=CC[C@@H]1[C@@H]2CC[C@]2(C)C(=O)CC[C@@H]12 [DHEAS, Dehydroepiandrosterone sulfate]
- IC50 (NTCP [1]): 52 µM
- Apparent K m (NTCP [2]): 56.1 ± 8.0 µM
- V max (NTCP [2]): 2198 ± 101.7 pmol/mg protein/min
- IC50 (NTCP [3]; [4]): 3.4 µM
- IC50 (NTCP [3]; [5]): 21.5 µM
- IC50 (NTCP [3]; [6]): 432 µM
- IC50 (ASBT; ASBT IC50, substrate [3H]TC, 200 nM [3H]TC): 453 µM
- IC50 (ASBT; ASBT IC50, substrate [3H]TLC, 200 nM [3H]TLC): > 1000 µM

Compound: C[C@H](CCC(=O)NCCS(=O)(=O)O)[C@H]1CC[C@H]2[C@@H]3[C@H](O)C[C@@H]4C[C@H](O)CC[C@]4(C)[C@H]3C[C@H](O)[C@]12C [Taurocholic acid]
- Apparent K m (NTCP [2]): 13.1 ± 0.8 µM
- V max (NTCP [2]): 2395 ± 59 pmol/mg protein/min

Compound: C[C@H](CCC(=O)NCCS(=O)(=O)O)[C@H]1CC[C@H]2[C@@H]3CC[C@@H]4C[C@H](O)CC[C@]4(C)[C@H]3CC[C@]12C [Taurolithocholic acid]
- IC50 (NTCP [1]; 10 nM myr-preS1-Al633, 10 min, 37°C, NTCP-HEK293, read-out: IC50 for inhibition of myr-preS1 peptide binding to NTCP): 4.3 µM
- Apparent K m (NTCP [2]): 18.4 ± 2.3 µM
- V max (NTCP [2]): 5915 ± 189 pmol/mg protein/min
- IC50 (NTCP [3]; [4]): 1.8 µM
- IC50 (NTCP [3]; [5]): 1.7 µM
- IC50 (NTCP [3]; [6]): 1.4 µM
- IC50 (ASBT; 200 nM [3H]TC, read-out: ASBT IC50, substrate [3H]TC): 1.9 µM
- IC50 (ASBT; 200 nM [3H]TLC, read-out: ASBT IC50, substrate [3H]TLC): 4 µM

— PMC8165160, “Substrate Specificities and Inhibition Pattern of the Solute Carrier Family 10 Members NTCP, ASBT and SOAT” (Frontiers in Molecular Biosciences, 2021)
